Assay results: patent US4336389A, “2-Substituted-4-aryl-5-thiazolecarboxylic acids and their derivatives as safening agents” (Monsanto Company, priority 1978, dated 1982)

Legend:
Assay type in all cases: in vivo
rice [1] = assay: Safening effect against butachlor injury to rice, safening agent and herbicide incorporated in soil (Example 15, Table I); parameters: key: herbicide-alone + safener-alone effect (max 100) minus combined effect; details: safening agent 8.96 kg/h; butachlor 4.48 kg/h; ~21 days
Protocol: (§1) A good grade of top soil is placed in a container and compacted to a depth of approximately 1.27 cm. from the top of said container. A predetermined number of rice seeds to be tested are placed on top of the soil. A quantity of soil sufficient to substantially fill the container is measured and placed in a second container. A measured quantity of the safening agent dispersed or dissolved in a suitable carrier is applied to the soil in the second container. A measured quantity of butachlor dispersed or dissolved in a suitable carrier is then sprayed on the soil already treated with the safening agent. The soil containing the safening agent and herbicide is thoroughly mixed. This mixing is sometimes referred to as incorporation of the herbicide and safening agent into the soil. The mixing or incorporation provides a substantially uniform distribution of the safening agent and herbicide throughout the soil. The seeds are covered with the soil containing the safening agent and herbicide and the pans are leveled. The pans are then placed on a sand bench in the greenhouse and watered from below as needed. The plants are observed at the end of approximately 21 days and the results in terms of percent inhibition of each seed lot are recorded. For each test series a pan of plants is also prepared containing no herbicide and no safening agent as a control. Additionally, for each test, a pan of plants is prepared with soil covering the seed containing no herbicide and only the measured amount of safening agent being incorporated into the soil covering the seeds to ascertain any herbicidal effect of the safening agent alone. For each series of tests the herbicidal effect of the herbicide is observed from pans of plants treated with the same quantity of herbicide alone. The "safening effect" is determined by adding the hericidal effect of the herbicide when applied alone to the herbicidal effect of the safening agent when applied alone (in no instance, however, will this sum be greater than 100) and substracting from that the herbicidal effect obtained when the herbicide and safening agent are incorporated into the soil as discussed above.
Table I summarizes the results obtained when the compounds of the invention were tested in accordance with the procedure of Example 15.

rice [2] = assay: Safening effect against butachlor injury to pre-soaked rice, soil surface application, flooded pots (Example 16, Table II); parameters: key: herbicide injury alone + safener injury alone (max 100) minus combined injury; details: safening agent 1.12 kg/h, ~21 days, mean of two replicates
Protocol: as §1
A good grade of top soil is placed in a plastic pot. A measured quantity of the safening agent dispersed or dissolved in a suitable carrier is sprayed on the soil surface. A measured quantity of butachlor herbicide dissolved in a solvent is sprayed on the soil surface. Presoaked rice is seeded into the pots that were previously flooded with water and the water level lowered below the soil surface for one week. The pots are flooded at least up to the soil surface for the duration of the test. The plants are observed at the end of approximately 21 days and the results in terms of the percent inhibition of rice is recorded. As in Example 15, for each test pots are prepared containing soil treated only with butachlor. For each test, pots are also prepared containing soil treated only with the safening agent. Pots are also prepared in which the soil is not treated with either the herbicide or the safening agent. The safening effect is determined in accordance with Example 15.
Table II summarizes the results obtained when the compounds of the invention were tested in accordance with the procedure of Example 16.

Barnyard Grass = assay: Percent inhibition of barnyard grass, mixture incorporated in soil cover layer (Example 19, Table V); details: ~21 days
Description: (§2) 5.08 cm. of a good grade of top soil is placed in a 7.62 cm. deep plastic pot. A predetermined number of weed seeds and rice seeds are applied to the soil surface. Butachlor and ethyl 2-chloro-4-phenyl-5-thiazolecarboxylate are applied to a soil cover layer as a mixture and incorporated by shaking the treated soil cover layer in a plastic bag. The cover layers were then placed on the pre-seeded pots. The plants are observed at the end of approximately 21 days and the results in terms of percent inhibition recorded. For each test, pots are prepared containing soil treated only with butachlor. For each test, pots are prepared containing soil treated only with the safening agent. Pots are also prepared with untreated soil.

Crabgrass = assay: Percent inhibition of crabgrass, mixture incorporated in soil cover layer (Example 19, Table V); details: ~21 days
Description: as §2

Panicum = assay: Percent inhibition of panicum, mixture incorporated in soil cover layer (Example 19, Table V); details: ~21 days
Description: as §2

Foxtail = assay: Percent inhibition of foxtail, mixture incorporated in soil cover layer (Example 19, Table V); details: ~21 days
Description: as §2

rice [3] = assay: Percent inhibition of rice, mixture incorporated in soil cover layer (Example 19, Table V); details: ~21 days
Description: as §2

[4] = safening agent 8.96 kg/h + butachlor 2.24 kg/h
[5] = safening agent 8.96 kg/h + butachlor 4.48 kg/h
[6] = safening agent 8.96 kg/h + butachlor 8.96 kg/h

## CCOC(=O)c1sc(Cl)nc1-c1ccccc1 [Example 1, Ethyl 2-Chloro-4-Phenyl-5-Thiazolecarboxylate]
Rice [1]
  Safening Effect: 75
Rice [2]; butachlor 0.14 kg/h
  Safening Effect: 78
Rice [2]; butachlor 0.56 kg/h
  Safening Effect: 99
Barnyard Grass; [4]
  Percent Inhibition, Barnyard Grass: 100%
Barnyard Grass; [5]
  Percent Inhibition, Barnyard Grass: 100%
Barnyard Grass; [6]
  Percent Inhibition, Barnyard Grass: 100%
Barnyard Grass; safening agent alone 8.96 kg/h
  Percent Inhibition, Barnyard Grass: 0%
Crabgrass; [4]
  Percent Inhibition, Crabgrass: 100%
Crabgrass; [5]
  Percent Inhibition, Crabgrass: 100%
Crabgrass; [6]
  Percent Inhibition, Crabgrass: 100%
Crabgrass; safening agent alone 8.96 kg/h
  Percent Inhibition, Crabgrass: 0%
Panicum; [4]
  Percent Inhibition, Panicum: 100%
Panicum; [5]
  Percent Inhibition, Panicum: 100%
Panicum; [6]
  Percent Inhibition, Panicum: 100%
Panicum; safening agent alone 8.96 kg/h
  Percent Inhibition, Panicum: 0%
Foxtail; [4]
  Percent Inhibition, Foxtail: 100%
Foxtail; [5]
  Percent Inhibition, Foxtail: 100%
Foxtail; [6]
  Percent Inhibition, Foxtail: 100%
Foxtail; safening agent alone 8.96 kg/h
  Percent Inhibition, Foxtail: 0%
Rice [3]; [4]
  Percent Inhibition, Rice: 8%
Rice [3]; [5]
  Percent Inhibition, Rice: 43%
Rice [3]; [6]
  Percent Inhibition, Rice: 45%
Rice [3]; safening agent alone 8.96 kg/h
  Percent Inhibition, Rice: 0%
